In patent US20100190716A1, “USE OF A PLATELET FIBRINOGEN RECEPTOR HEXAPEPTIDE ANTAGONIST AND ALPHA-ENDORPHIN AS THERAPEUTIC AGENTS” (priority 2007, published 2010):
Where no end group is shown, it is not given here. [ ]: non-standard residue; d: D form. Hyp = O=C(O)[C@@H]1C[C@@H](O)CN1

Experiments:
HIV-1IIIB = test: HIV-1 antiviral assay in CEM-SS cells (MTS readout); conditions: positive controls
HCMV strain AD169 = test: HCMV plaque formation assay in MRC-5 cells; conditions: for inhibition of HCMV plaque formation compared to virus control: 10 micrograms per ml, 7-10 days
[1] = test system: hepatitis B virus (HBV) ayw strain; test: HBV experimental assay system, secreted HBV DNA by TaqMan PCR in HepG2-2.2.15; format: cell-based; conditions: 10 micrograms per ml, HepG2-2.2.15, 6 days
[2] = test system: Human Peripheral Blood Mononuclear Cells (PBMC), B cell proliferation; test: B cell proliferation assay (SAC plus Interleukin-2 stimulated PBMC, 3H-thymidine); format: cell-based; conditions: 10 micrograms per ml; SAC plus IL-2 stimulated PBMC
Protocol: Human Peripheral Blood Mononuclear Cells (PBMC) were obtained from normal human donors. The B cell proliferation was induced by stimulation of the cells with the B cell mitogen Staphylococcus aureus Cowans I (SAC) plus Interleukin-2, either in the absence (positive proliferation control), or in the presence of test peptides—10 micrograms per ml—to examine their effects on the B cell response. 10^5/well PBMC were plated in 96-well microtiter plates and assayed in duplicate with the peptides. Cell cultures were incubated at 37° C. for 3 days in a 5% CO2 incubator and were thereafter pulsed with 1 microCi/well ^3H-thymidine for additional 12 hours of culture. At the end of incubation time, the plates were harvested and the cells counted by liquid scintillation for the incorporation of ^3H-thymidine as a measure of B cell proliferation.

[3] = test system: Tumor Necrosis Factor-α (TNF-α); test: Th1/Th2 cytokine profiling assay, TNF-α; format: cell-based, mouse; conditions: 10 micrograms per ml; Ovalbumin-restimulated Balb/c spleen cells, 72 hours
Description: (§1) The Balb/c mice (originated in 1923, it is a popular strain and is used in many different research disciplines. Also classified as an inbred from the production of 20 or more successive brother-sister matings, the Balb/c mouse is albino and small in size) were immunized on Days 1, 15, and 29 with Ovalbumin (Ovalbumin is the main protein found in egg white, commonly used to stimulate an immunological reaction in test animals) in PBS (5 micrograms/injection). On day 50, spleens of the mice were harvested (3 weeks after last boost with Ovalbumin). […] Thereafter, additional Ovalbumin was added to the cells at 10 micrograms/ml for in vitro restimulation of the cells. 72 hours later, cell supernatants were harvested and assayed using the Becton Dickinson Mouse Th1/Th2 Cytokine CBA Kit. This kit can be used to measure Interleukin-2 (IL-2), Interleukin-4 (IL-4), Interleukin-5 (IL-5), Interferon-γ (IFN-γ), and Tumor Necrosis Factor-α (TNF-α) protein levels in a single sample. The kit performance has been optimized for analysis of physiologically relevant concentrations ([…] levels) of specific cytokine proteins in tissue culture supernatants and serum samples.

Interferon-γ (IFN-γ) = test: Th1/Th2 cytokine profiling assay, IFN-γ; format: cell-based, mouse; conditions: 10 micrograms per ml; Ovalbumin-restimulated Balb/c spleen cells, 72 hours
Description: as §1

Interleukin-2 (IL-2) = test: Th1/Th2 cytokine profiling assay, IL-2; format: cell-based, mouse; conditions: 10 micrograms per ml; Ovalbumin-restimulated Balb/c spleen cells, 72 hours
Description: as §1

Interleukin-4 (IL-4) = test: Th1/Th2 cytokine profiling assay, IL-4; format: cell-based, mouse; conditions: 10 micrograms per ml; Ovalbumin-restimulated Balb/c spleen cells, 72 hours
Description: as §1

Interleukin-5 (IL-5) = test: Th1/Th2 cytokine profiling assay, IL-5; format: cell-based, mouse; conditions: 10 micrograms per ml; Ovalbumin-restimulated Balb/c spleen cells, 72 hours
Description: as §1

[4] = test system: Primary Human endothelial cells (HUVEC); test: Endothelial cell migration assay; format: cell-based; conditions: 10 micrograms per ml, 22 hours
Protocol: Endothelial cell migration is a prerequisite for the process of neo-vascularization or angiogenesis which is crucial for on-site recruitment of blood vessel formation. Primary Human endothelial cells (HUVEC) were seeded in insert chambers with 3 micrometer pore size of multi-transwell plate for 6 hours at 37° C. in Endothelial Cell Basal Medium (EBM) supplemented with 0.1% bovine serum albumin. Thereafter, designated concentration of testing peptides—10 micrograms per ml—was added in duplicate wells. The endothelia were allowed to migrate for 22 hours at 37° C., then, migrated cells were fixed and stained with Hoechst 33342 dye. Images of 3 fields per insert were taken and the number of migrated cells per field were quantified using the ImageProPlus software. Data were analyzed for the average number of the migrated cells and standard deviation of six data points for each treatment condition. Active test peptides against HUVEC migration was determined based on 50% inhibition of migrated cells as compared with the control. Statistic p values were computed using the Student's t-test.

HUVEC = test: Endothelial tube formation assay; format: cell-based, human; conditions: 10 micrograms per ml, 20 hours
Protocol: The endothelial tube formation assay is based on the ability of endothelial cells to form three-dimensional capillary-like tubular structures when cultured on a gel of basement membrane extract. The endothelial tube formation assay represents a powerful model for studying inhibition and induction of angiogenesis. Pre-labeled HUVEC with Calcein AM were seeded in a 96-well culture plate coated with extracellular metrix (Chemicon international Cat. ECM625) and treated with test peptides—10 micrograms per ml—in full growth medium. Positive control was vehicle only. The endothelial cells were allowed to form tubes foe 20 hours and were then examined under an inverted fluorescent microscope. Duplicate wells for each treatment were photographed and quantitatively analyzed for an average tubule length using image analysis software ImageProPlus. Raw data were expressed as average tubule lengths in pixels ±standard deviation. Statistic p values were computed using the Student's t-test.

Compound | antiviral activity of positive control compounds (HIV-1IIIB) | antiviral activity of positive control compound (HCMV strain AD169; positive control, HCMV AD169) | inhibition of HBV replication on tested liver cells [1] | decrease of the proliferation of specifically stimulated human B-cells [2] [%] | TNF-a spleen cells; TH1 response (% of control) [3] | IFNγ spleen cells; TH1 response (% of control) (Interferon-γ (IFN-γ)) | IL-2 spleen cells (% of control) (Interleukin-2 (IL-2)) | IL-4 spleen cells; TH2 response (% of control) (Interleukin-4 (IL-4)) | IL-5 spleen cells; TH2 response (% of control) (Interleukin-5 (IL-5)) | inhibition of the migration of human endothelial cells [4] [%] | inhibition of the tube formation of human endothelial cells (HUVEC) | inhibition of HCMV plaque formation compared to virus control (HCMV strain AD169)
Cc1cn([C@H]2C[C@H](N=[N+]=[N-])[C@@H](CO)O2)c(=O)[nH]c1=O [AZT] | expected levels of antiviral activity | – | – | – | – | – | – | – | – | – | – | –
Nc1nc(O)c2ncn(COC(CO)CO)c2n1 [Ganciclovir, reference compound] | – | expected levels of antiviral activity | – | – | – | – | – | – | – | – | – | –
CC(C)(C)NC(=O)[C@@H]1CN(Cc2cccnc2)CCN1C[C@@H](O)C[C@@H](Cc1ccccc1)C(=O)N[C@H]1c2ccccc2C[C@H]1O [indinavir] | expected levels of antiviral activity | – | – | – | – | – | – | – | – | – | – | –
PS[Hyp]GDW-OH [peptide 1] | – | – | no effect | 20.9 | 96.0 % of control | 63.7 % of control | 117.9 % of control | 0.0 % of control | 65.5 % of control | 39 | did not inhibit | did not inhibit
Tyr-Gly-Gly-Phe-Met-Thr-Ser-Glu-Lys-Ser-Gln-Thr-Pro-Leu-Val-Thr-OH (YGGFMTSEKSQTPLVT-OH) [peptide 2] | – | – | no effect | 12.0 | 93.1 % of control | 68.6 % of control | 0.0 % of control | 0.0 % of control | 53.0 % of control | 31 | did not inhibit | did not inhibit
